Data: patent US20260000676A1, “CHROMAN DERIVATIVES AS ESTROGEN RECEPTOR DEGRADERS” (THE REGENTS OF THE UNIVERSITY OF MICHIGAN, priority 2022, published 2026)
Where a name gives a salt, the structure may show the parent alone.

Legend:
ER [1] = molecular target: T1, ER (Homo sapiens (Human), UniProt P03372); assay: In-cell western (ICW) ER degradation assay in T47D cells; format: cell-based; settings: 16 hrs; for DC50: ER degradation
MCF-7 cells = assay: cells; settings: Homo sapiens, MCF7, 144 h, read-out: MCF7 Proliferation IC50 (nM)
Description: (§1) In vitro assay can be accomplished by MCF-7 and T47D Cell Titer Glo (CTG) assay. MCF-7 and T47D cell (From HDB) are cultured in multi-well white plate with phenol red-free RPMI1640+10% CS-FBS+1% P/S medium (e.g., at 1,000 cells/well). On day 0: Cells are treated with compound at certain concentrations (e.g., 0.5 to 10000 nM) (DMSO and Staurosporine as control). On day 0 and day 6: add Cell Titer Glo reagent and read on EnVision after 30 min incubation for data generation.
(§2) • 1) Cell culture medium: phenol red-free RPMI1640+10% CS-FBS, 1% P/S
(§3) Day-1: MCF-7 and T47D cell (From HDB) were cultured in 384-well white plate with phenol red-free RPMI1640+10% CS-FBS+1% P/S medium (1,000 cells/well) for overnight at 37° C., 5% CO2 incubator.
(§4) Day 0: Cells were treated at desired compound concentrations (0.5 to 10000 nM) (DMSO and Staurosporine as control) for Day 6 at 37° C., 5% CO2 incubator.
(§5) Day 0 and Day 6: add Cell TiterGlo reagent and read on EnVision after 30 min incubation for data generation.

ER [2] = molecular target: T1, ER; assay: In-cell western (ICW) ER degradation assay in MCF-7 cells; format: cell-based; settings: MCF7, 16 hrs; for DC50: ER degradation; for MCF7 Dmax %: maximal ER degradation; for Dmax: MCF7, maximal ER degradation
CRBN/DDB1 = CRBN/DDB1 (Homo sapiens (Human), UniProt Q96SW2); assay: HTRF binding assay to CRBN/DDB1; settings: read-out: CRBN HTRF IC50
Description: The binding potency was determined using HTRF assay technology (Perkin Elmer). Compounds were serially diluted in DMSO and 0.2 μL volume was transferred to white 384-well plate.

ERα_LBD(GST) = ERα_LBD(GST) (Homo sapiens (Human), UniProt P03372); assay: LanthaScreen TR-FRET ERα competitive binding assay; settings: read-out: ERα HTRF IC50
How it was run: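 GST-tagged ERα LBD (4 nM) with Tb anti-GST (2 nM) and Fluormone ES2 Green tracer (3 nM) in nuclear receptor buffer K plus 5 mM DTT, 1% DMSO; 3-fold compound dilutions, 60 min at room temperature in the dark. TR-FRET 520/495 nm ratio vs log[ligand], sigmoidal fit for IC50; 1 μM ARV_471 as full-inhibition control.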

T47D cells = assay: cells; settings: Homo sapiens, 144 h, read-out: T47D Proliferation IC50 (nM)
Description: as §1, §2, §3, §4, §5

CRBN/DDB1, sequence (Q96SW2 whole entry): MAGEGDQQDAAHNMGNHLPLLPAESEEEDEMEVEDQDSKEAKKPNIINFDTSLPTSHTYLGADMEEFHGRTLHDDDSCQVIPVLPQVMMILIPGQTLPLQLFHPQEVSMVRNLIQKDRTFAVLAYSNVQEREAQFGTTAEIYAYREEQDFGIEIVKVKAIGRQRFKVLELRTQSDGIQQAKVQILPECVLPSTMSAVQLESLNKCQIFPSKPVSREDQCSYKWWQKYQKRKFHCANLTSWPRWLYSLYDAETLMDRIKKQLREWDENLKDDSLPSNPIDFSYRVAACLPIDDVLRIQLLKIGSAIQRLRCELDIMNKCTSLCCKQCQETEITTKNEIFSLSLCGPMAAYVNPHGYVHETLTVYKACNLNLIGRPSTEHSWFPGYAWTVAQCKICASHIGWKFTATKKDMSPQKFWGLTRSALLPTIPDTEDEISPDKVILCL
CRBN/DDB1, sequence (Q16531 whole entry partner): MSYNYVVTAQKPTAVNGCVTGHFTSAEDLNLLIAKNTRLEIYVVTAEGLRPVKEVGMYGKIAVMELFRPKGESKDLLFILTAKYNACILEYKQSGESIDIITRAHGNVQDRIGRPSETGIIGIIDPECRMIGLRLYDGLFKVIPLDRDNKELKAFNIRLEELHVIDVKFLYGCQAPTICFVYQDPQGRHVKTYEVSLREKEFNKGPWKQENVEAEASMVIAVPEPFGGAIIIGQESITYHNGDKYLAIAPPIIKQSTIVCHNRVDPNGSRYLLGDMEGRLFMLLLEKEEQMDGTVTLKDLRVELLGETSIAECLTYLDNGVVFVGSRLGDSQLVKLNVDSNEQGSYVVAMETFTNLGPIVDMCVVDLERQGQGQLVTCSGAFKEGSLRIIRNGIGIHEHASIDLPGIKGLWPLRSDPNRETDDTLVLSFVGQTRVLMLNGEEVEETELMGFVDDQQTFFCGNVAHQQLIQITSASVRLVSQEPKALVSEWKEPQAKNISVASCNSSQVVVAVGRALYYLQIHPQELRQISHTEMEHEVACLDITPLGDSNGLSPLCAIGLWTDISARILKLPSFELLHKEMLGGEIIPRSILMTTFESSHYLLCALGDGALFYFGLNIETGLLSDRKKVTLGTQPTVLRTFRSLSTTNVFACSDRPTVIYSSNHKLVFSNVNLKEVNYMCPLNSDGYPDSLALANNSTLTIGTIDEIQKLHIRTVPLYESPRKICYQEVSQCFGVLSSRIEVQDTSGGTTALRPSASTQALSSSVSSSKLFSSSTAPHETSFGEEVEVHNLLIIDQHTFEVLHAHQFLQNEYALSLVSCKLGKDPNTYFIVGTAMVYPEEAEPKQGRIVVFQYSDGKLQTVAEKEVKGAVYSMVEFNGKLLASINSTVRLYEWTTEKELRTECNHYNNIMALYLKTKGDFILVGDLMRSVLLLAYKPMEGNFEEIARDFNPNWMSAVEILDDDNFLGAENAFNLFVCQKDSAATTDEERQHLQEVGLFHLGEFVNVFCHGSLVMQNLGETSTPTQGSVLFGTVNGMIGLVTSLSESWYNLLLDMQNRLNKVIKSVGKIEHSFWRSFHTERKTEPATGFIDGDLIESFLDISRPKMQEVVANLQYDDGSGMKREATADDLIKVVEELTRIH
T1 sequence (P03372 whole entry): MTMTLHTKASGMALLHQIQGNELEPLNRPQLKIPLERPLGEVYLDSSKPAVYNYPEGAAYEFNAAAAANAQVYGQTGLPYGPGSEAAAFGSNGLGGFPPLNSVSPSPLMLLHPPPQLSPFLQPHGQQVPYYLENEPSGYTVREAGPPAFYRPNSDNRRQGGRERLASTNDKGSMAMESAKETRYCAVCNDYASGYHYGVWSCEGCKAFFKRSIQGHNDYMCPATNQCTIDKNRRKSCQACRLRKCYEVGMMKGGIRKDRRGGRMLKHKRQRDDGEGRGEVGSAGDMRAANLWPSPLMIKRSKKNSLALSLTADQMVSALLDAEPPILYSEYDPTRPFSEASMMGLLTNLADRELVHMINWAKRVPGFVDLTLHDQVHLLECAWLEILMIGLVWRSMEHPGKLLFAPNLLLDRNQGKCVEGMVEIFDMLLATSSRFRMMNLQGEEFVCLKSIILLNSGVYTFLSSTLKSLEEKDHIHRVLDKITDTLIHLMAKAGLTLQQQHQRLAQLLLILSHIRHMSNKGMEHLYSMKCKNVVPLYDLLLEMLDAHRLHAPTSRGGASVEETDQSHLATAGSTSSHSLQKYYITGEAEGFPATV
ERα_LBD(GST), sequence (P03372 311-547): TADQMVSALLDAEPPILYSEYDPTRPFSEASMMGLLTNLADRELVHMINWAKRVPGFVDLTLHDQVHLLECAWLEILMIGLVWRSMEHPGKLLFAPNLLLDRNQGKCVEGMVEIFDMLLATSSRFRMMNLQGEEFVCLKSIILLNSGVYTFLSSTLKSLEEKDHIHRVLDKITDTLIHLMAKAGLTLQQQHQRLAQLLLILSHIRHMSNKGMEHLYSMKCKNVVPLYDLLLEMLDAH

SMILES	DC50 (ER [1])	T47D Dmax % (ER [1]; maximal ER degradation)	IC50 (MCF-7 cells)	DC50 (ER [2])	MCF7 Dmax % (ER [2])	IC50 (CRBN/DDB1)	IC50 (ERα_LBD(GST))	IC50 (T47D cells)	Dmax (ER [1]; maximal ER degradation)	Dmax (ER [2])	DC50 (ER [2]; formate)	MCF7 Dmax % (ER [2]; formate)
O=C1CCC(N2Cc3cc4c(cc3C2=O)OC[C@@H]2CN(CC3CCC5(CC3)CN(c3ccc([C@@H]6c7ccc(O)cc7OC[C@@H]6c6ccccc6)cc3)C5)CCN42)C(=O)N1 (single isomer, unassigned) [Compound A58]	1 to 10 nM	B (“B”: >50% and <75%)	50 to 500 nM	1 to 10 nM	C (“C”: 25%-50%)	500 to 5000 nM	< 5 nM	50 to 500 nM				
O=C1CCC(N2Cc3cc(N4CCN(CC5CCN(c6ccc([C@@H]7c8ccc(O)cc8OC[C@@H]7c7ccccc7)cc6)CC5)CC4)ccc3C2=O)C(=O)N1 (single isomer, unassigned) [Compound A62]	< 1 nM		< 50 nM	< 1 nM		50 to 500 nM	< 5 nM	< 50 nM	50 to 75%	50 to 75%		
O=C1CCC(N2Cc3c(ccc4c3OCC43CCN(CC4CCC5(CC4)CN(c4ccc([C@@H]6c7ccc(O)cc7OC[C@@H]6c6ccccc6)cc4)C5)CC3)C2=O)C(=O)N1 (stereo partly drawn) [Compound A114, 3-(1′-((2-(4-((3S,4R)-7-hydroxy-3-phenylchroman-4-yl)phenyl)-2-azaspiro[3.5]nonan-7-yl)methyl)-6-oxo-6,8-dihydro-2H,7H-spiro[furo[2,3-e]isoindole-3,4′-piperidin]-7-yl)piperidine-2,6-dione]	< 1 nM		< 50 nM	< 1 nM		< 50 nM		< 50 nM	≥ 75%	≥ 75%		
COc1cc(C(=O)NC2CCC(=O)NC2=O)ncc1N1CCN(CC2CC3(CCN(c4ccc([C@H]5c6ccc(O)cc6OC[C@H]5c5ccccc5)cc4)CC3)C2)CC1 (single isomer, unassigned) [Compound A116]	< 1 nM		< 50 nM	< 1 nM		500 to 5000 nM		50 to 500 nM	50 to 75%	50 to 75%		
COc1cc(C(=O)NC2CCC(=O)NC2=O)ncc1N1CCN(CC2CCC3(CC2)CN(c2ccc([C@H]4c5ccc(O)cc5OC[C@H]4c4ccccc4)cc2)C3)CC1 (mixture of isomers) [Compound A117, N-(2,6-dioxopiperidin-3-yl)-5-(4-((2-(4-((3R,4S)-7-hydroxy-3-phenylchroman-4-yl)phenyl)-2-azaspiro[3.5]nonan-7-yl)methyl)piperazin-1-yl)-4-methoxypicolinamide]	< 1 nM		< 50 nM	< 1 nM		500 to 5000 nM	< 5 nM	< 50 nM	≥ 75%	≥ 75%		
O=C1CCC(Nc2ccc(N3CCN(CC4CC5(CCN(c6ccc([C@H]7c8ccc(O)cc8OC[C@H]7c7ccccc7)cc6)CC5)C4)CC3)c(F)c2)C(=O)N1 (single isomer, unassigned) [Compound A51]	< 1 nM		50 to 500 nM	< 1 nM		500 to 5000 nM		50 to 500 nM	25 to 50%	25 to 50%		
O=C1CC[C@@H](N2Cc3cc4c(cc3C2=O)OC[C@H]2CN(CC3COC5(CCN(c6ccc([C@H]7c8ccc(O)cc8OC[C@H]7c7ccccc7)cc6)CC5)C3)CCN42)C(=O)N1 (stereo partly drawn) [Compound A138, (3R)-3-((4aR)-3-((8-(4-((3R,4S)-7-hydroxy-3-phenylchroman-4-yl)phenyl)-1-oxa-8-azaspiro[4.5]decan-3-yl)methyl)-8-oxo-1,2,3,4,4a,5,8,10-octahydro-9H-pyrazino[1′,2′:4,5][1,4]oxazino[2,3-f]isoindol-9-yl)piperidine-2,6-dione]	< 1 nM		< 50 nM	< 1 nM		50 to 500 nM	< 5 nM	< 50 nM	50 to 75%	≥ 75%		
O=C1CCC(N2Cc3cc4c(cc3C2=O)CN(C(=O)CN2CC3(CCN(c5ccc([C@H]6c7ccc(O)cc7OC[C@H]6c6ccccc6)cc5)CC3)C2)C4)C(=O)N1 (stereo partly drawn) [Compound A56, 3-(6-(2-(7-(4-((3R,4S)-7-hydroxy-3-phenylchroman-4-yl)phenyl)-2,7-diazaspiro[3.5]nonan-2-yl)acetyl)-1-oxo-3,5,6,7-tetrahydropyrrolo[3,4-f]isoindol-2(1H)-yl)piperidine-2,6-dione formate]	< 1 nM		< 50 nM			50 to 500 nM		< 50 nM	≥ 75%		1 to 10 nM	B (“B”: >50% and <75%)
O=C1CC[C@@H](N2Cc3c(ccc4c3OCC43CCN(CC4CCC5(CC4)CN(c4ccc([C@H]6c7ccc(O)cc7OC[C@H]6c6ccccc6)cc4)C5)CC3)C2=O)C(=O)N1 [Compound A154, (R)-3-(1′-((2-(4-((3R,4S)-7-hydroxy-3-phenylchroman-4-yl)phenyl)-2-azaspiro[3.5]nonan-7-yl)methyl)-6-oxo-6,8-dihydro-2H,7H-spiro[furo[2,3-e]isoindole-3,4′-piperidin]-7-yl)piperidine-2,6-dione]	< 1 nM		< 50 nM	< 1 nM		< 50 nM	< 5 nM	< 50 nM	≥ 75%	50 to 75%		
O=C1CC[C@H](N2Cc3c(ccc4c3OC[C@H]3CN(CC5CC6(CCN(c7ccc([C@H]8c9ccc(O)cc9OC[C@H]8c8ccccc8)cc7)CC6)C5)CCN43)C2=O)C(=O)N1 (single isomer, unassigned) [Compound A50]	< 1 nM		50 to 500 nM	1 to 10 nM		50 to 500 nM	< 5 nM	50 to 500 nM	50 to 75%	50 to 75%		
O=C1CC[C@@H](N2Cc3cc4c(cc3C2=O)OC[C@H]2CN(CC3CC5(CCN(c6ccc([C@@H]7c8ccc(O)cc8OC[C@@H]7c7ccccc7)cc6)CC5)C3)CCN42)C(=O)N1 [Compound A95, (R)-3-((R)-3-((7-(4-((3S,4R)-7-hydroxy-3-phenylchroman-4-yl)phenyl)-7-azaspiro[3.5]nonan-2-yl)methyl)-8-oxo-1,2,3,4,4a,5,8,10-octahydro-9H-pyrazino[1′,2′:4,5][1,4]oxazino[2,3-f]isoindol-9-yl)piperidine-2,6-dione]	1 to 10 nM		50 to 500 nM	1 to 10 nM		500 to 5000 nM		< 50 nM	50 to 75%	50 to 75%		
O=C1CC[C@@H](N2Cc3cc4c(cc3C2=O)OC[C@H]2CN(CC3CCC5(CC3)CN(c3ccc([C@@H]6c7ccc(O)cc7OC[C@@H]6c6ccccc6)cc3)C5)CCN42)C(=O)N1 [Compound A119, (R)-3-((R)-3-((2-(4-((3S,4R)-7-hydroxy-3-phenylchroman-4-yl)phenyl)-2-azaspiro[3.5]nonan-7-yl)methyl)-8-oxo-1,2,3,4,4a,5,8,10-octahydro-9H-pyrazino[1′,2′:4,5][1,4]oxazino[2,3-f]isoindol-9-yl)piperidine-2,6-dione]	1 to 10 nM		50 to 500 nM	1 to 10 nM		500 to 5000 nM		500 to 5000 nM	50 to 75%	50 to 75%		
O=C1CC[C@@H](N2Cc3cc4c(cc3C2=O)OC[C@H]2CN(CC3CCC5(CC3)CN(c3ccc([C@H]6c7ccc(O)cc7OC[C@H]6c6ccccc6)cc3)C5)CCN42)C(=O)N1 (single isomer, unassigned) [Compound A118]	1 to 10 nM		50 to 500 nM	1 to 10 nM			< 5 nM	50 to 500 nM	≥ 75%	≥ 75%		
O=C1CC[C@H](N2Cc3c(ccc4c3OC[C@H]3CN(CC5CCC6(CC5)CN(c5ccc([C@@H]7c8ccc(O)cc8OC[C@@H]7c7ccccc7)cc5)C6)CCN43)C2=O)C(=O)N1 (single isomer, unassigned) [Compound A115]	< 1 nM		50 to 500 nM	< 1 nM		50 to 500 nM	< 5 nM	50 to 500 nM	≥ 75%	≥ 75%		
COc1cc(N2CCC(CN3CCC(c4ccc(N[C@@H]5CCC(=O)NC5=O)cc4)CC3)CC2)ccc1[C@@H]1c2ccc(O)cc2OC[C@@H]1c1ccccc1 [Compound A150, (R)-3-((4-(1-((1-(4-((3S,4R)-7-hydroxy-3-phenylchroman-4-yl)-3-methoxyphenyl)piperidin-4-yl)methyl)piperidin-4-yl)phenyl)amino)piperidine-2,6-dione]	< 1 nM		50 to 500 nM	< 1 nM			< 5 nM	50 to 500 nM	25 to 50%	25 to 50%		
O=C1CC[C@@H](N2Cc3cc4c(cc3C2=O)OCC2CN(CC3CCC5(CC3)CN(c3ccc([C@H]6c7ccc(O)cc7OC[C@H]6c6ccccc6)cc3)C5)CCN42)C(=O)N1 (stereo in doubt) [Compound A120, (R)-3-((R)-3-((2-(4-((3R,4S)-7-hydroxy-3-phenylchroman-4-yl)phenyl)-2-azaspiro[3.5]nonan-7-yl)methyl)-8-oxo-1,2,3,4,4a, 5,8,10-octahydro-9H-pyrazino[1′,2′:4,5][1,4]oxazino[2,3-f]isoindol-9-yl)piperidine-2,6-dione]	< 1 nM		50 to 500 nM	1 to 10 nM			< 5 nM	50 to 500 nM	≥ 75%	≥ 75%		
